This experiment deals with P388. Briefly: Growth inhibition of mouse P388 cells. The experiment is classed as functional. As to conditions: read-out: ED50 (the source's name).

In brackets after ≈: the same amount, converted by molar mass. Residues, ends and D or L forms follow the SMILES beside them.

With `CC[C@H](C)[C@@H]1NC(=O)[C@@H]2CCCN2C(=O)[C@H](Cc2ccccc2)NC(=O)[C@@H]2CCCN2C(=O)[C@H](Cc2ccc(O)cc2)NC(=O)[C@@H]2CCCN2C(=O)[C@H]([C@@H](C)CC)NC1=O.Cl` [PHAKELLISTATIN 2 (SYNTHETIC)] (cyclo(FPIIPYP)), the EC50 was found to be 24 µg/mL.

In the case of `CC[C@H](C)[C@@H]1NC(=O)[C@@H]2CCCN2C(=O)[C@H](Cc2ccccc2)NC(=O)[C@@H]2CCCN2C(=O)[C@H](Cc2ccc(O)cc2)NC(=O)[C@@H]2CCCN2C(=O)[C@H]([C@@H](C)CC)NC1=O` [PHAKELLISTATIN 2] (cyclo(FPIIPYP)), the EC50 came to 0.34 µg/mL (≈ 0.411 µM).

The record behind these values is ChEMBL document CHEMBL1157281, “Antineoplastic agents. 400. Synthesis of the Indian Ocean marine sponge cyclic heptapeptide phakellistatin 2” (1999).
